# Source: US20100310553A1, “Compositions and Methods for Controlling Hepatitis C Virus Infection” (priority 2006, published 2010)
# Legend:
# [1] = test system: apoB and triglyceride secretion; conditions: HepG2 cells; cited from earlier work
# HCV [2] = assay: HCV production: infectivity of media of CP-346086-treated, HCV-infected Huh7.5 cells on naive Huh7.5 cells; assay type: cell-based, Hepatitis C virus
# Description: (§1) With reference to FIGS. 14A-14F, studies were carried out to determine the effects of an MTP inhibitor, CP-346086, on lipoprotein production/secretion and HCV production. […] To determine the effect of CP-346086 on HCV production, Huh7.5 cells were infected with HCV at 37° C. for 2 hr and then incubated with varying concentrations of CP-346086 for 4 days. The levels of apoB and apoE in the media were determined by Western blotting. […] The levels of HCV virions released into the media were initially determined by infectivity assay in cell culture. The naïve Huh7.5 cells were infected with HCV-containing media. At 3 days p.i., the levels of HCV NS3 protein and positive-stranded RNA were quantified by Western blotting and RPA, respectively. […] Similarly, CP-346086 lowered the infectious HCV titers by 1, 2, 3, and 4 orders of magnitude (10, 100, 1,000, and 10,000 times) at concentrations of 6.25, 12.5, 25, and 50 μM, respectively, as illustrated in FIG. 14E.
# [3] = test system: subgenomic HCV replicon of genotype 2a; assay: HCV RNA replication in Huh7.5 cells harboring a subgenomic HCV replicon of genotype 2a; assay type: cell-based, Hepatitis C virus; conditions: subgenomic replicon genotype 2a, RPA
# apoB = apoB in media of HCV-infected Huh7.5 cells treated with inhibitor, Western blotting; assay type: cell-based; conditions: 1 μM; 4 days
# Description: as §1
# apoE = apoE in media of HCV-infected Huh7.5 cells treated with inhibitor, Western blotting; assay type: cell-based; conditions: 4 days
# Description: as §1
# HCV [4] = assay: HCV production after treatment of HCV-infected cells with commercial inhibitors of lipoprotein assembly and secretion, RPA; assay type: cell-based, Hepatitis C virus; conditions: increasing concentrations; positive-strand HCV RNA by RPA, 3 days p.i.
# Description: These inhibitors were used to treat HCV-infected cells. The culture supernatants were then used to infect naïve Huh7.5 cells. At 3 days p.i., the levels of positive-strand HCV RNA were determined by RPA.
# HCV [5] = assay: HCV infection of Huh7.5 cells in the presence of apoE3 or apoC-I protein; assay type: cell-based, Hepatitis C virus; conditions: increasing concentrations (μg/ml); RPA
# Description: With reference to FIGS. 16A and 16B, the effect of recombinant apolipoprotein E3 (apoE3) and purified apoC-I on HCV infection was investigated. Huh7.5 cells were infected with HCV in the presence of increasing concentrations (μg/ml) of apoE3 or apoC-I, as indicated on the top of the figures. At 3-hr p.i., the HCV-infected cells were washed with 1×PBS twice and were incubated with medium for 3 days. With reference to FIG. 16A, the levels of HCV NS3 protein in the cells infected with HCV in the presence of apoE3 were then determined by Western blot analysis using an NS3-specific monoclonal antibody and a cellular beta-actin protein as an internal control. With reference to FIG. 16B, HCV positive-strand RNA in the cells infected with HCV in the presence of apoC-I were quantified by RPA.
compound,measurement,setting,value
O=C(Nc1ccc2c(c1)CCN(Cc1ncn[nH]1)C2)c1ccccc1-c1ccc(C(F)(F)F)cc1 [CP-346086],IC50,[1],2.6 nM
same,lowering of infectious HCV titers,HCV [2]; 6.25 μM,10 times
same,lowering of infectious HCV titers,HCV [2]; 12.5 μM,100 times
same,lowering of infectious HCV titers,HCV [2]; 25 μM,"1,000 times"
same,lowering of infectious HCV titers,HCV [2]; 50 μM,"10,000 times"
same,reduction of HCV positive-stranded RNA level,"HCV [2]; 50 μM, 3 days p.i., RPA",> 95%
same,reduction of HCV NS3 protein level,"HCV [2]; 50 μM, 3 days p.i., Western blotting",> 95%
same,HCV RNA replication,[3],no significant effect
same,apoB secretion,apoB,almost completely blocked
same,concentration up to which apoE secretion was not reduced,apoE,above 3 μM
COc1ccc(Cl)cc1C(=O)NCCc1ccc(S(=O)(=O)NC(=O)NC2CCCCC2)cc1 [glybenclamide],levels of HCV virion production,HCV [4],significantly decreased
COc1ccc([C@@H]2CC(=O)c3c(O)cc(O)cc3O2)cc1O [hesperetin],levels of HCV virion production,HCV [4],significantly decreased
O=c1c(O)c(-c2ccc(O)c(O)c2)oc2cc(O)cc(O)c12 [quercetin],levels of HCV virion production,HCV [4],significantly decreased
"ApoC-I: purified apoC-I protein (TPDVSSALDKLKEFGNTLEDKARELISRIKQSELSAKMREWFSETFQKVKEKLKIDS; UniProt P02654 27-83, looked up)",inhibition of HCV infection (HCV positive-strand RNA),HCV [5],inhibited HCV infection in a dose-dependent manner
